The supplement of paper PMC10307832

How the values were obtained:
Experiment in all cases: relative viability (nuclei count vs DMSO), 5 days (fraction); higher = more cells survive
[1] = test system: NCI-H2009
Summary of the method: (§1)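 Lung cancer cell lines, seeded in 1536-well plates, were treated the following day by pin tool with a single drug or with five library-drug doses (not always all listed) in √10 steps on top of a fixed anchor-drug dose. Cells were fixed and nuclei stained in one step after 5 days, and nuclei were counted. Relative viability is the nuclei count for treated wells divided by that for vehicle wells, reported as medians of duplicate plates.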

[2] = test system: NCI-H522
Summary of the method: as §1

[3] = test system: NCI-H2342
Summary of the method: as §1

[4] = test system: NCI-H460
Summary of the method: as §1

[5] = test system: HCC-78
Summary of the method: as §1

[6] = test system: NCI-H661
Summary of the method: as §1

[7] = test system: NCI-H1648
Summary of the method: as §1

Q: Which results are given for `CCN(CC)CCCCNc1ncc2cc(-c3cc(OC)cc(OC)c3)c(NC(=O)NC(C)(C)C)nc2n1` + CC(=O)Nc1cccc(-n2c(=O)n(C3CC3)c(=O)c3c(Nc4ccc(I)cc4F)n(C)c(=O)c(C)c32)c1 [Trametinib] (partner 0.02 µM)?
A: relative viability ([1]; first compound 0.01 µM): 0.264; relative viability ([1]; first compound 0.03162 µM): 0.244; relative viability ([1]; first compound 0.1 µM): 0.266; relative viability ([1]; first compound 0.3162 µM): 0.254; relative viability ([1]; first compound 1 µM): 0.192; relative viability ([2]; first compound 0.01 µM): 0.799; relative viability ([2]; first compound 0.03162 µM): 0.772; relative viability ([2]; first compound 0.1 µM): 0.787; relative viability ([2]; first compound 0.3162 µM): 0.664; relative viability ([2]; first compound 1 µM): 0.883; relative viability ([3]; first compound 0.01 µM): 0.787; relative viability ([3]; first compound 0.03162 µM): 0.783; relative viability ([3]; first compound 0.1 µM): 0.815; relative viability ([3]; first compound 0.3162 µM): 0.858; relative viability ([3]; first compound 1 µM): 0.928; relative viability ([4]; first compound 0.01 µM): 0.127; relative viability ([4]; first compound 0.03162 µM): 0.208; relative viability ([4]; first compound 0.1 µM): 0.153; relative viability ([4]; first compound 0.3162 µM): 0.124; relative viability ([4]; first compound 1 µM): 0.062; relative viability ([5]; first compound 0.01 µM): 0.874; relative viability ([5]; first compound 0.03162 µM): 0.685; relative viability ([5]; first compound 0.1 µM): 0.842; relative viability ([5]; first compound 0.3162 µM): 0.819; relative viability ([5]; first compound 1 µM): 0.76; relative viability ([6]; first compound 0.01 µM): 0.592; relative viability ([6]; first compound 0.03162 µM): 0.589; relative viability ([6]; first compound 0.1 µM): 0.569; relative viability ([6]; first compound 0.3162 µM): 0.563; relative viability ([6]; first compound 1 µM): 0.473; relative viability ([7]; first compound 0.01 µM): 0.368; relative viability ([7]; first compound 0.03162 µM): 0.49; relative viability ([7]; first compound 0.1 µM): 0.396; relative viability ([7]; first compound 0.3162 µM): 0.46; relative viability ([7]; first compound 1 µM): 0.367

Q: Which results are given for `COc1nc(C)cnc1NS(=O)(=O)c1cccnc1-c1ccc(-c2nnco2)cc1` [Zibotentan] + CC(=O)c1c(C)c2cnc(Nc3ccc(N4CCNCC4)cn3)nc2n(C2CCCC2)c1=O [Palbociclib] (partner 0.5 µM)?
A: relative viability ([1]; first compound 0.08 µM): 0.188; relative viability ([1]; first compound 0.253 µM): 0.169; relative viability ([1]; first compound 0.8 µM): 0.205; relative viability ([1]; first compound 2.53 µM): 0.212; relative viability ([2]; first compound 0.08 µM): 0.981; relative viability ([2]; first compound 0.253 µM): 0.823; relative viability ([2]; first compound 0.8 µM): 0.919; relative viability ([2]; first compound 2.53 µM): 0.855; relative viability ([3]; first compound 0.08 µM): 0.507; relative viability ([3]; first compound 0.253 µM): 0.557; relative viability ([3]; first compound 0.8 µM): 0.558; relative viability ([3]; first compound 2.53 µM): 0.506; relative viability ([4]; first compound 0.08 µM): 0.157; relative viability ([4]; first compound 0.253 µM): 0.0391; relative viability ([4]; first compound 0.8 µM): 0.139; relative viability ([4]; first compound 2.53 µM): 0.25; relative viability ([5]; first compound 0.08 µM): 0.464; relative viability ([5]; first compound 0.253 µM): 0.488; relative viability ([5]; first compound 0.8 µM): 0.512; relative viability ([5]; first compound 2.53 µM): 0.512; relative viability ([6]; first compound 0.08 µM): 0.421; relative viability ([6]; first compound 0.253 µM): 0.384; relative viability ([6]; first compound 0.8 µM): 0.455; relative viability ([6]; first compound 2.53 µM): 0.396; relative viability ([7]; first compound 0.08 µM): 0.274; relative viability ([7]; first compound 0.253 µM): 0.276; relative viability ([7]; first compound 0.8 µM): 0.312; relative viability ([7]; first compound 2.53 µM): 0.259

Q: `COc1nc(C)cnc1NS(=O)(=O)c1cccnc1-c1ccc(-c2nnco2)cc1` [Zibotentan] + Nc1nc2[nH]cc(CCc3ccc(C(=O)N[C@@H](CCC(=O)O)C(=O)O)cc3)c2c(=O)[nH]1 [Pemetrexed] (partner 0.2 µM) was tested. Which relative viability ([1]; first compound 0.08 µM) did it give?
A: The relative viability was 1.03.

Q: What about the relative viability ([1]; first compound 0.253 µM) of the same compound?
A: The relative viability was 1.01.

Q: And the relative viability ([1]; first compound 0.8 µM)?
A: The relative viability was 1.01.

Q: What about the relative viability ([1]; first compound 2.53 µM) of the same compound?
A: Its relative viability is 1.03.

Q: And the relative viability ([2]; first compound 0.08 µM)?
A: The relative viability was 0.909.

Q: What about the relative viability ([2]; first compound 0.253 µM) of the same compound?
A: The relative viability was 1.03.

Q: And the relative viability ([2]; first compound 0.8 µM)?
A: The relative viability was 0.881.

Q: What about the relative viability ([2]; first compound 2.53 µM) of the same compound?
A: The relative viability was 0.758.

Q: And the relative viability ([3]; first compound 0.08 µM)?
A: The relative viability was 0.769.

Q: What about the relative viability ([3]; first compound 0.253 µM) of the same compound?
A: Its relative viability is 0.729.

Q: What about the relative viability ([3]; first compound 0.8 µM) of the same compound?
A: Its relative viability is 0.761.

Q: And the relative viability ([3]; first compound 2.53 µM)?
A: Its relative viability is 0.797.

Q: And the relative viability ([4]; first compound 0.08 µM)?
A: The relative viability was 0.0594.

Q: What about the relative viability ([4]; first compound 0.253 µM) of the same compound?
A: Its relative viability is 0.0676.

Q: And the relative viability ([4]; first compound 0.8 µM)?
A: Its relative viability is 0.0545.

Q: What about the relative viability ([4]; first compound 2.53 µM) of the same compound?
A: Its relative viability is 0.0682.

Q: And the relative viability ([5]; first compound 0.08 µM)?
A: Its relative viability is 0.876.

Q: What about the relative viability ([5]; first compound 0.253 µM) of the same compound?
A: Its relative viability is 0.892.

Q: And the relative viability ([5]; first compound 0.8 µM)?
A: Its relative viability is 0.877.

Q: What about the relative viability ([5]; first compound 2.53 µM) of the same compound?
A: Its relative viability is 0.889.

Q: What about the relative viability ([6]; first compound 0.08 µM) of the same compound?
A: The relative viability was 0.931.

Q: What about the relative viability ([6]; first compound 0.253 µM) of the same compound?
A: The relative viability was 0.881.

Q: What about the relative viability ([6]; first compound 0.8 µM) of the same compound?
A: Its relative viability is 0.873.

Q: And the relative viability ([6]; first compound 2.53 µM)?
A: The relative viability was 0.912.

Q: And the relative viability ([7]; first compound 0.08 µM)?
A: The relative viability was 0.791.

Q: What about the relative viability ([7]; first compound 0.253 µM) of the same compound?
A: Its relative viability is 0.686.

Q: And the relative viability ([7]; first compound 0.8 µM)?
A: The relative viability was 0.532.

Q: And the relative viability ([7]; first compound 2.53 µM)?
A: The relative viability was 0.635.
